Legend:
[1] = target: Casein kinase II subunit alpha (Homo sapiens) (UniProt P68400)
[2] = target: GABA-A receptor; anion channel (Rattus norvegicus) (UniProt O09028+P15431+P18506+P18508+P19969+P20236+P23574+P23576+P28471+P28473+P30191+P62813+P63079+P63138+Q91ZM7+Q9ES14); conditions: Compound concentration 10.0 uM
[3] = target: Tyrosine-protein kinase Fyn (Homo sapiens) (UniProt P06241)
[4] = target: Serine/threonine-protein kinase 24 (Homo sapiens) (UniProt Q9Y6E0)
[5] = target: T1, 5-hydroxytryptamine receptor 1A (Homo sapiens) (UniProt P08908); conditions: Compound concentration 10.0 uM
T1 sequence (whole entry): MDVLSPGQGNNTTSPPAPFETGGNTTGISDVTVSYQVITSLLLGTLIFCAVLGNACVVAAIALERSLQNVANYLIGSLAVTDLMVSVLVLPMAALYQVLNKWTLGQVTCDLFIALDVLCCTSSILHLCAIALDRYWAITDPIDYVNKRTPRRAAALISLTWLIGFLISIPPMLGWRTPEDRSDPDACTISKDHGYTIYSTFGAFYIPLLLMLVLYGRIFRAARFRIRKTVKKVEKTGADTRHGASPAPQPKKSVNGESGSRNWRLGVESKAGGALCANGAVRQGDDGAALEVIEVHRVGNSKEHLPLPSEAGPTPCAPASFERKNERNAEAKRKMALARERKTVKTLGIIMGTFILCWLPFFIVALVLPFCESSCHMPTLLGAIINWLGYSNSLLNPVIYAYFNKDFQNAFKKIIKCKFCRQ

[6] = target: Serine/threonine-protein kinase BRSK2 (Homo sapiens) (UniProt Q8IWQ3)
[7] = target: Phosphatidylinositol 3-kinase C2 domain-containing subunit gamma (Homo sapiens) (UniProt O75747)
[8] = target: Cyclin-dependent kinase 11A (Homo sapiens) (UniProt Q9UQ88)
Chain of Cyclin-dependent kinase 11A (Homo sapiens) (Q9UQ88 whole entry): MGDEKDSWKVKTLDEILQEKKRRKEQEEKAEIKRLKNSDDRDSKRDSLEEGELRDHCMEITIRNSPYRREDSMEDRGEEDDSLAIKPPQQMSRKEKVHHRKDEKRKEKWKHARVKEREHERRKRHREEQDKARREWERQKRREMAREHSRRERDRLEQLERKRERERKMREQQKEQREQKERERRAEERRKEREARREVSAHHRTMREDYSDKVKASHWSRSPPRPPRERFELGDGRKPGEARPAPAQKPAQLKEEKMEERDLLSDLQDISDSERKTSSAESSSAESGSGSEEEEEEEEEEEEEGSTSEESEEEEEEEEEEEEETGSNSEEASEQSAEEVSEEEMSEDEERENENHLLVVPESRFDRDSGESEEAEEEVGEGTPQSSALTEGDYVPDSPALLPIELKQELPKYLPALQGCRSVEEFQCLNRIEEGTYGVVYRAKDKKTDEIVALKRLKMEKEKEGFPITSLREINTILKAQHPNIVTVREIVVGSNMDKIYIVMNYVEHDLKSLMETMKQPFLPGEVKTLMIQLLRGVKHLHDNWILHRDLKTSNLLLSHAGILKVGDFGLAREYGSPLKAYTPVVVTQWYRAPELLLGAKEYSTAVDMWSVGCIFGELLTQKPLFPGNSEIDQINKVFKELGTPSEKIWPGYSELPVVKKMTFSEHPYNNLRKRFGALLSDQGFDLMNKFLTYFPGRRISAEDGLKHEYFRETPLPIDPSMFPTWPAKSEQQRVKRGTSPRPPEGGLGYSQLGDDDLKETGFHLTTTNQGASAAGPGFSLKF

[9] = target: T2, cGMP-dependent protein kinase 1 (Homo sapiens) (UniProt Q13976)
T2 sequence (whole entry): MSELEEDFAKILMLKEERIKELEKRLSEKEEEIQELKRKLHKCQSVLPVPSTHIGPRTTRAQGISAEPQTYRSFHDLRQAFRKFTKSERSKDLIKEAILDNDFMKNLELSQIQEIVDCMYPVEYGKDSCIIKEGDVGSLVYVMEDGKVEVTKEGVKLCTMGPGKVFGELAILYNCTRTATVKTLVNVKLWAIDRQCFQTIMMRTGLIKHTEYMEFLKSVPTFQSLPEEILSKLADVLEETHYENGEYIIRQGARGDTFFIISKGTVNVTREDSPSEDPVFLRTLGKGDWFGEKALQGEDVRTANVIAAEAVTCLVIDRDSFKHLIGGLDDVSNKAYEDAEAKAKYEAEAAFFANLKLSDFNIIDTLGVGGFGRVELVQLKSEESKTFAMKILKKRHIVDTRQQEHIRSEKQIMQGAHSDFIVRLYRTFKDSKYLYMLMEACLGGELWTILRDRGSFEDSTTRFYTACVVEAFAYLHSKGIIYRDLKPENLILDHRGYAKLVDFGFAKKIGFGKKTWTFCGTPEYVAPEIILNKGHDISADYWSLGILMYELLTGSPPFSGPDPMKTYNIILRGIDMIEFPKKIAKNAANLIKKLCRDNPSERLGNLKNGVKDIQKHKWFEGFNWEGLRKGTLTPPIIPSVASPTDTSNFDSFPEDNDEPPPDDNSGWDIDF

[10] = tested on: Phosphatidylinositol 4,5-bisphosphate 3-kinase catalytic subunit alpha isoform (Homo sapiens), P42336 [C420R]
[11] = target: Ribosomal protein S6 kinase alpha-4 (Homo sapiens) (UniProt O75676)
Chain of Ribosomal protein S6 kinase alpha-4 (Homo sapiens) (O75676 whole entry, looked up): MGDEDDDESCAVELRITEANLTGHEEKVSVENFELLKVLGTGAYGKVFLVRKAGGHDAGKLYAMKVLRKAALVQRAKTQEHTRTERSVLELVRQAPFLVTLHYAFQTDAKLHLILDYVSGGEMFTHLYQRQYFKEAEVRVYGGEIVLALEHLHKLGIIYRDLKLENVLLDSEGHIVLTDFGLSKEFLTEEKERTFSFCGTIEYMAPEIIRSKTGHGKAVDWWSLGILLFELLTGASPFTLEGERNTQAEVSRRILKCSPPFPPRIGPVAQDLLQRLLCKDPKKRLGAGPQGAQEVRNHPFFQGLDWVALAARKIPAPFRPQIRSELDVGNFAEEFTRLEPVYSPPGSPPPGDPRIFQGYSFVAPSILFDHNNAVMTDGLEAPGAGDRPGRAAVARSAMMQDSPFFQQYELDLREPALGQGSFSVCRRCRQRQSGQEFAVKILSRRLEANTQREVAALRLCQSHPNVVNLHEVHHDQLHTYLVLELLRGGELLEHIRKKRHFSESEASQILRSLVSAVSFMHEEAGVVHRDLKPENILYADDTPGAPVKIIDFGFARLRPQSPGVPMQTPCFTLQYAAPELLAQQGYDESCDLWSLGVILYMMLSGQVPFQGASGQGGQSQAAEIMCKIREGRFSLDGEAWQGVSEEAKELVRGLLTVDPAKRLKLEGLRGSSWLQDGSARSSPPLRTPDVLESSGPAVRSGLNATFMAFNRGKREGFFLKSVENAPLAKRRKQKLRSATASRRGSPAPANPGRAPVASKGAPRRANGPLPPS

[12] = target: Serine/threonine-protein kinase 38-like (Homo sapiens) (UniProt Q9Y2H1)
[13] = target: Serine/threonine-protein kinase 38 (Homo sapiens) (UniProt Q15208)
Chain of Serine/threonine-protein kinase 38 (Homo sapiens) (Q15208 2-465 limits assumed): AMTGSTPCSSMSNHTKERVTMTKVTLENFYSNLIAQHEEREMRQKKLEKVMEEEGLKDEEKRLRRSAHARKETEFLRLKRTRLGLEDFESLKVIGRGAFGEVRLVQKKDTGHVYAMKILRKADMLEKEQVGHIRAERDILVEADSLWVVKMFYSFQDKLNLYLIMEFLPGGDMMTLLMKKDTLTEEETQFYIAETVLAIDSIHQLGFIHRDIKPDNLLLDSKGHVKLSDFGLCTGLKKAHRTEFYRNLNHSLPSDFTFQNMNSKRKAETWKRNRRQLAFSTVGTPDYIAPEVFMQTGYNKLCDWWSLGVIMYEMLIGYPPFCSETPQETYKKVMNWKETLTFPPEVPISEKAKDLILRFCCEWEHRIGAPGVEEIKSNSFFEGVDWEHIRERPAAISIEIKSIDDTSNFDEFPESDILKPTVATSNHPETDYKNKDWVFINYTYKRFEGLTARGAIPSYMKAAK

[14] = target: Serine/threonine-protein kinase B-raf (Homo sapiens) (UniProt P15056)
[15] = target: Mitogen-activated protein kinase 6 (Homo sapiens) (UniProt Q16659)
[16] = target: Serine/threonine-protein kinase Nek7 (Homo sapiens) (UniProt Q8TDX7)
[17] = tested on: Phosphatidylinositol 4,5-bisphosphate 3-kinase catalytic subunit alpha isoform (Homo sapiens), P42336 [H1047L]
[18] = target: G protein-coupled receptor kinase 4 (Homo sapiens) (UniProt P32298)
Chain of G protein-coupled receptor kinase 4 (Homo sapiens) (P32298 whole entry, looked up): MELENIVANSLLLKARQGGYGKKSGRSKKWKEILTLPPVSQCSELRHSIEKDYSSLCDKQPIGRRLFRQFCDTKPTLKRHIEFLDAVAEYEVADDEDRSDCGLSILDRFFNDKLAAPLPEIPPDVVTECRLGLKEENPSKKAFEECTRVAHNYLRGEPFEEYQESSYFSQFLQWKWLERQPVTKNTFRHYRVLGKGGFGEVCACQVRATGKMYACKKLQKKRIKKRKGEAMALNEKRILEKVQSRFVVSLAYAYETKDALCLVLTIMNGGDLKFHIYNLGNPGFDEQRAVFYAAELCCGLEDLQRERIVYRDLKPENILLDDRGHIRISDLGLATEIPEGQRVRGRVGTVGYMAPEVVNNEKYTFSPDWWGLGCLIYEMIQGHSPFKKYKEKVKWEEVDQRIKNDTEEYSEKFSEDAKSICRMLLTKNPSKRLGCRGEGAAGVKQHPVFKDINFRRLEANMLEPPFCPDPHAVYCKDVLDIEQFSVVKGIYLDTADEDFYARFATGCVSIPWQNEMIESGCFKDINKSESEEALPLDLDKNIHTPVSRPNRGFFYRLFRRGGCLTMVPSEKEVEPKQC

[19] = target: Serine/threonine-protein kinase PLK2 (Homo sapiens) (UniProt Q9NYY3)
Chain of Serine/threonine-protein kinase PLK2 (Homo sapiens) (Q9NYY3 whole entry, looked up): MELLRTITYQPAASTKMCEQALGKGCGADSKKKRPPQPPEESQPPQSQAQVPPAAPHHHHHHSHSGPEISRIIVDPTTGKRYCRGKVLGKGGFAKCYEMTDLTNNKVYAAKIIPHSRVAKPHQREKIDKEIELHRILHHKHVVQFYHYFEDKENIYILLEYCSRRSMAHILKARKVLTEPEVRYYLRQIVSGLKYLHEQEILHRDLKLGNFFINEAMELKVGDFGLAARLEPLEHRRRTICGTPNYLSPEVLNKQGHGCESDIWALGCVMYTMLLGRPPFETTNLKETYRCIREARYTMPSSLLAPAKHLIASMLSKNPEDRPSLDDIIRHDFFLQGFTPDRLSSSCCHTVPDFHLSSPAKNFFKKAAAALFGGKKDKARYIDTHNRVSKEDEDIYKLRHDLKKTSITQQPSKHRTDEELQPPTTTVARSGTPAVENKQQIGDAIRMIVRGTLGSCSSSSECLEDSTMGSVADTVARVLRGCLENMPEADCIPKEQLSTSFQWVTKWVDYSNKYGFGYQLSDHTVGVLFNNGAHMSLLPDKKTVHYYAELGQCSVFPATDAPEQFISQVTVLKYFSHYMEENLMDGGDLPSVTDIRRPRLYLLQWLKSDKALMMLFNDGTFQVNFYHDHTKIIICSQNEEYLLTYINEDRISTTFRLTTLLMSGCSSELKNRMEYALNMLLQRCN

[20] = target: Interleukin-1 receptor-associated kinase 4 (Homo sapiens) (UniProt Q9NWZ3)
[21] = target: Wee1-like protein kinase (Homo sapiens) (UniProt P30291)
[22] = target: Focal adhesion kinase 1 (Homo sapiens) (UniProt Q05397)
Chain of Focal adhesion kinase 1 (Homo sapiens) (Q05397 2-1052 limits assumed): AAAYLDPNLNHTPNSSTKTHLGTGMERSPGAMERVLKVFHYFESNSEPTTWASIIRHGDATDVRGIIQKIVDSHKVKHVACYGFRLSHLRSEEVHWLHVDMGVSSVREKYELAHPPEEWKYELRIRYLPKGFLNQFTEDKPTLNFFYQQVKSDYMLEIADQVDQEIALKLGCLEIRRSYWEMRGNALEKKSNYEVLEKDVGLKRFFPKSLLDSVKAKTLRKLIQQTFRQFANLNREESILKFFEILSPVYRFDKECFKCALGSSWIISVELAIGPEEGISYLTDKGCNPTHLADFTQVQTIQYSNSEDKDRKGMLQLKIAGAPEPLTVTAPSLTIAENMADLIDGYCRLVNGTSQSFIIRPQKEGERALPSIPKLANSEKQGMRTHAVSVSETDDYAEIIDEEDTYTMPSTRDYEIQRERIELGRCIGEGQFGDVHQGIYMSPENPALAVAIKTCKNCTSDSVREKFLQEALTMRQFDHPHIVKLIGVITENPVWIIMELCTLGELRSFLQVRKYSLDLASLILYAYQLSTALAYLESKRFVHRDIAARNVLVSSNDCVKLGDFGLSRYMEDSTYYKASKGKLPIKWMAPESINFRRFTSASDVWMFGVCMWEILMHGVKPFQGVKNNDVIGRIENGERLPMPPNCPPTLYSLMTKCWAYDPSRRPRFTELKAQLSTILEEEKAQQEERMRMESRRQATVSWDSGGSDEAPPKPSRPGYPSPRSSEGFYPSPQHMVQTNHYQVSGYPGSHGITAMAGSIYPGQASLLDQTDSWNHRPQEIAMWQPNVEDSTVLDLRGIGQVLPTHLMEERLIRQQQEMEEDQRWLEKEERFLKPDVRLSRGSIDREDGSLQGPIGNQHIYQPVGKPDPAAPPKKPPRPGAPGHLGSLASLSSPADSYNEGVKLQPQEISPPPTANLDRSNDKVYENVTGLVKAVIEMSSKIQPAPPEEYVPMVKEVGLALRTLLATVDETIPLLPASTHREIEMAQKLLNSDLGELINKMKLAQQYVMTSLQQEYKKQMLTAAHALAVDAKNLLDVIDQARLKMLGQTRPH

[23] = tested on: Receptor-type tyrosine-protein kinase FLT3 (Homo sapiens), P36888 [D835V]
[24] = tested on: Receptor-type tyrosine-protein kinase FLT3 (Homo sapiens), P36888 [R834Q]
[25] = Compound concentration 100.0 nM
[26] = Compound concentration 1000.0 nM

Chain of Tyrosine-protein kinase Fyn (Homo sapiens) (P06241 2-537 limits assumed): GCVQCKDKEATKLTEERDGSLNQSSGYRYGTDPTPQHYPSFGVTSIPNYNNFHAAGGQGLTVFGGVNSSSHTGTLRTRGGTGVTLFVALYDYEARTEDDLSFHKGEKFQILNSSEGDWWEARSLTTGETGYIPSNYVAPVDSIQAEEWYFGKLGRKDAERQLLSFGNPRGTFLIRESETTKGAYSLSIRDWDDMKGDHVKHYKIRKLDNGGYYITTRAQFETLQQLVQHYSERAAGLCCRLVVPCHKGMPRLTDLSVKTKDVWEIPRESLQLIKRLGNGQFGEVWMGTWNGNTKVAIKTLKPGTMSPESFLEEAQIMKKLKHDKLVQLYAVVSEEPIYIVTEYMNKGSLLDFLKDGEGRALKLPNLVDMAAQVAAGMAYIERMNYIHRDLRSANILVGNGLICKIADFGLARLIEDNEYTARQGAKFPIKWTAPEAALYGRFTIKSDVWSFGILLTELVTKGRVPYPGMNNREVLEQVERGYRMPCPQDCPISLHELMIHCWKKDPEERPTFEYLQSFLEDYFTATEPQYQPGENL

C[C@@H]1CN(c2cc(-c3n[nH]c4ccc(OC5(C)CC5)cc34)ncn2)C[C@H](C)O1 [MLi-2]
inactive: residual activity [1, 25] 66% | inhibition [2] 7.14% | residual activity [3, 25] 100% | residual activity [4, 25] 96% | inhibition [5] 4.44% | residual activity [6, 25] 100% | residual activity [7, 25] 69% | residual activity [8, 25] 93% | residual activity [9, 25] 100% | residual activity [10, 25] 72% | residual activity [11, 25] 75% | residual activity [12, 25] 85% | residual activity [13, 25] 87% | residual activity [14, 25] 91% | residual activity [15, 25] 91% | residual activity [16, 25] 100% | residual activity [17, 25] 87% | residual activity [18, 25] 100% | residual activity [19, 25] 76% | residual activity [20, 25] 90% | residual activity [21, 25] 97% | residual activity [22, 25] 81% | residual activity [23, 25] 73% | residual activity [24, 25] 78%

C[C@@H]1CN(c2cc(-c3nn(C)c4ccc(OC5(C)CC5)cc34)ncn2)C[C@H](C)O1 [MLi-2-NC]
inactive: residual activity [1, 26] 76% | inhibition [2] 2.92% | residual activity [3, 26] 98% | residual activity [4, 26] 79% | inhibition [5] 18.1% | residual activity [6, 26] 100% | residual activity [7, 26] 100% | residual activity [8, 26] 100% | residual activity [9, 26] 100% | residual activity [10, 26] 100% | residual activity [11, 26] 81% | residual activity [12, 26] 72% | residual activity [13, 26] 57% | residual activity [14, 26] 68% | residual activity [15, 26] 97% | residual activity [16, 26] 79% | residual activity [17, 26] 83% | residual activity [18, 26] 96% | residual activity [19, 26] 68% | residual activity [20, 26] 76% | residual activity [21, 26] 100% | residual activity [22, 26] 95% | residual activity [23, 26] 86% | residual activity [24, 26] 90%
